This note sets out measurements from the NIST ThermoML archive (doi:10.1016/j.fluid.2011.06.001).

Numbers after ± are expanded uncertainties.

The conditions of data set [1]: Liquid, Closed cell (Static) method.
A short description of data set [2]: excess molar enthalpy (molar enthalpy of mixing); xn = mol fraction of the nth substance listed. Conditions: 298.15 K, 101 kPa, Liquid, Flow calorimetry.

The term vapor or sublimation pressure denotes the equilibrium pressure above the liquid or solid. In the case of `CC(C)CCl` [1-chloro-2-methylpropane], the results for the “vapor or sublimation pressure” value in data set [1] (288.15 K), in data set [1] (298.15 K) and in data set [1] (308.15 K) were 13 ± 0.034 kPa, 20.35 ± 0.048 kPa and 30.45 ± 0.066 kPa, respectively.

As to `CC(C)CCl` [1-chloro-2-methylpropane] + CC(C)OC(C)C, the excess molar enthalpy was -0.00722 ± 0.000263 kcal/mol in data set [2] (x1 = 0.0907); -0.0129 ± 0.000359 kcal/mol in data set [2] (x1 = 0.1815); -0.0175 ± 0.000454 kcal/mol in data set [2] (x1 = 0.2726); -0.0206 ± 0.000526 kcal/mol in data set [2] (x1 = 0.3634); -0.0227 ± 0.00055 kcal/mol in data set [2] (x1 = 0.4544); -0.0229 ± 0.000574 kcal/mol in data set [2] (x1 = 0.5453). Besides, the excess molar enthalpy in data set [2] (x1 = 0.6361) was -0.0219 ± 0.00055 kcal/mol; in data set [2] (x1 = 0.727), -0.0189 ± 0.000478 kcal/mol; in data set [2] (x1 = 0.8179), -0.0147 ± 0.000406 kcal/mol; in data set [2] (x1 = 0.909), -0.00822 ± 0.000287 kcal/mol.

Take `CCCCCl` [1-chlorobutane]: the “vapor or sublimation pressure” value amounted to 8.4 ± 0.025 kPa in data set [1] (288.15 K), 13.52 ± 0.034 kPa in data set [1] (298.15 K) and 21.04 ± 0.048 kPa in data set [1] (308.15 K).

Turning to `CCCCCl` [1-chlorobutane] + CC(C)OC(C)C, the excess molar enthalpy in data set [2] (x1 = 0.0908) is -0.00684 ± 0.000263 kcal/mol; in data set [2] (x1 = 0.1817), -0.0131 ± 0.000382 kcal/mol; in data set [2] (x1 = 0.2726), -0.0175 ± 0.000454 kcal/mol; in data set [2] (x1 = 0.3636), -0.0209 ± 0.000526 kcal/mol; in data set [2] (x1 = 0.4545), -0.0228 ± 0.000574 kcal/mol; in data set [2] (x1 = 0.5453), -0.0228 ± 0.000574 kcal/mol. Also, the excess molar enthalpy in data set [2] (x1 = 0.6363) was -0.0216 ± 0.00055 kcal/mol; in data set [2] (x1 = 0.7273), -0.0188 ± 0.000478 kcal/mol; in data set [2] (x1 = 0.818), -0.014 ± 0.000382 kcal/mol; in data set [2] (x1 = 0.909), -0.00774 ± 0.000263 kcal/mol.

In the case of `CC(C)(C)Cl` [2-chloro-2-methylpropane], the “vapor or sublimation pressure” value came out at 26.42 ± 0.062 kPa in data set [1] (288.15 K), 40.13 ± 0.087 kPa in data set [1] (298.15 K) and 59.52 ± 0.12 kPa in data set [1] (308.15 K).

`CC(C)(C)Cl` [2-chloro-2-methylpropane] + CC(C)OC(C)C: the excess molar enthalpy in data set [2] (x1 = 0.1093) worked out at 0.00108 ± 0.000191 kcal/mol; in data set [2] (x1 = 0.2192) it was 0.00167 ± 0.000191 kcal/mol; in data set [2] (x1 = 0.3295) it was 0.00191 ± 0.000191 kcal/mol; in data set [2] (x1 = 0.4402), 0.00196 ± 0.000191 kcal/mol; in data set [2] (x1 = 0.5512) it was 0.0017 ± 0.000191 kcal/mol; in data set [2] (x1 = 0.6628), 0.00127 ± 0.000191 kcal/mol. In addition, the results for the excess molar enthalpy in data set [2] (x1 = 0.7747) and in data set [2] (x1 = 0.8872) were 0.000837 ± 0.000191 kcal/mol and 0.000311 ± 0.000191 kcal/mol, respectively.

Turning to `CCC(C)Cl` (stereo not drawn) [2-chlorobutane], the “vapor or sublimation pressure” value came to 13.36 ± 0.035 kPa in data set [1] (288.15 K), 20.91 ± 0.049 kPa in data set [1] (298.15 K) and 31.55 ± 0.068 kPa in data set [1] (308.15 K).

With `CCC(C)Cl` (stereo not drawn) [2-chlorobutane] + CC(C)OC(C)C, the excess molar enthalpy is -0.00368 ± 0.000215 kcal/mol in data set [2] (x1 = 0.0909); -0.00717 ± 0.000263 kcal/mol in data set [2] (x1 = 0.1819); -0.0104 ± 0.000311 kcal/mol in data set [2] (x1 = 0.2726); -0.0125 ± 0.000359 kcal/mol in data set [2] (x1 = 0.3636); -0.0137 ± 0.000382 kcal/mol in data set [2] (x1 = 0.4546); -0.0144 ± 0.000406 kcal/mol in data set [2] (x1 = 0.5454). For the same compound, the excess molar enthalpy in data set [2] (x1 = 0.6365) was -0.0143 ± 0.000406 kcal/mol; in data set [2] (x1 = 0.7273), -0.0127 ± 0.000359 kcal/mol; in data set [2] (x1 = 0.8182), -0.00985 ± 0.000311 kcal/mol; in data set [2] (x1 = 0.9092), -0.006 ± 0.000239 kcal/mol.

In the case of `CC(C)OC(C)C` [diisopropyl ether], the “vapor or sublimation pressure” value in data set [1] (288.15 K) was determined as 12.65 ± 0.034 kPa; in data set [1] (298.15 K), 20 ± 0.047 kPa; in data set [1] (308.15 K) it was 30.46 ± 0.066 kPa.
